The source of these data is ChEMBL document CHEMBL1152512, “The search for potent, small molecule NNRTIs: A review” (Bioorg Med Chem, 2009).

Molecules are shown by their SMILES.

In data set [1] the test system is Human immunodeficiency virus 1. Put plainly: Antiviral activity against Human immunodeficiency virus 1 infected in human MT4 cells. It counts as functional, organism-based. The following applies: Human immunodeficiency virus 1, MT4.
Data set [2] relates to Human immunodeficiency virus 1. Put plainly: Antiviral activity against Human immunodeficiency virus 1 3B. It counts as functional, organism-based.
A short description of data set [3]: Selectivity index, ratio of human MT4 cytotoxicity to inhibition of HIV1 cytopathicity. It counts as toxicity. The settings on record: MT4 cells, read-out: Selectivity Index.
The subject of data set [4] is Human immunodeficiency virus. Put plainly: Inhibition of wild-type HIV reverse transcriptase.
Data set [5] relates to Human immunodeficiency virus type 1 reverse transcriptase (Human immunodeficiency virus 1), Q72547 [K103N]. Nature of the data set: Inhibition of HIV reverse transcriptase K103N mutant.
In data set [6] the target is T1, Human immunodeficiency virus type 1 reverse transcriptase (Human immunodeficiency virus 1, UniProt Q72547). Put plainly: Inhibition of HIV1 reverse transcriptase.
For data set [7], the target named is T1, Human immunodeficiency virus type 1 reverse transcriptase. Nature of the data set: Inhibition of wild-type HIV1 reverse transcriptase.
For data set [8], the target named is Human immunodeficiency virus type 1 reverse transcriptase (Human immunodeficiency virus 1, UniProt Q72547, Y181C). Put plainly: Inhibition of HIV1 reverse transcriptase Y181C mutant.
The target of data set [9] is Human immunodeficiency virus type 1 reverse transcriptase (Human immunodeficiency virus 1, UniProt Q72547, K103N). Nature of the data set: Inhibition of HIV1 reverse transcriptase K103N mutant.

`CC(C)=CCN1Cc2c(Cl)ccc3[nH]c(=S)n(c23)C[C@@H]1C` [TIVIRAPINE]: the EC50 in data set [1] worked out at 0.0043 µM. Compound `CC1=C(C(=O)Nc2ccc(Cl)c(C(=O)OC(C)C)c2)SCCO1` came in with an EC50 in data set [2] of 0.015 µM. Take `COc1ccccc1NC(C(N)=O)c1c(Cl)cccc1Cl` (stereo not given): the EC50 in [1] was 0.61 µM. Moreover, the selectivity ratio in [3] worked out at 10000. For `CC(=O)c1ccc(C)cc1NC(C(N)=O)c1c(Cl)cccc1Cl` (stereo not given) [LOVIRIDE] the same measures were 0.013 µM and 10000. For the compound `CC(C)=CCOc1cc(NC(=S)c2ccoc2C)ccc1Cl` [UC 781], the midpoint of the response in [2], the EC50, lay at 0.015 µM. For `CCC1(c2cccc(OC)c2)Oc2ccccc2-n2cccc2C1=O` (stereo not given), the INH in data set [4] turned out to be 0.05 µM; in data set [5], 0.022 µM.

In [6], `CCN(CC)CCOc1ccc(NC(=O)COc2ccccc2C(=O)c2ccc(OC)cc2)cc1` gave an IC50 of 21 µM. Turning to `Cc1cc(S(N)(=O)=O)ccc1NC(=O)COc1ccc(Cl)cc1C(=O)c1cc(F)cc(C(F)(F)F)c1`, the 50% inhibitory concentration (IC50) in data set [7] is under 0.002 µM; in data set [8], under 0.01 µM; in data set [9] it was under 0.01 µM. Turning to `CC(C)=CCOc1cc(NC(=S)c2ccsc2C)ccc1Cl`, in data set [2], the EC50 was 0.015 µM. In [1], `C=CCN1Cc2cccc3[nH]c(=O)n(c23)CC1C` (stereo not given) registered an EC50 of 62 µM.

The EC50 is the concentration at which the effect is half-maximal. As usually defined, the IC50 is the concentration at which inhibition is half-maximal. A high value points to lower potency.
